In patent US10117845B2, “Retinal derivatives and methods for the use thereof for the treatment of visual disorders” (University of Washington, priority 2004, dated 2018):

Tests used:
[1] = system: LRAT−/− mice (LCA mouse model); test: Retinoids in eyes of gavaged LRAT−/− mice, analyzed by HPLC (Example 1); type: in vivo
Protocol: […]. HPLC chromatogram showing retinoid elution in treated and control mice eye and liver tissue. FIG. 1A. Eyes from dark adapted LRAT−/− mouse. FIG. 1B. Eyes from dark-adapted LRAT−/− mouse gavaged with 5 mg all-trans-retinyl palmitate 2 days prior. FIG. 1C. Eyes from dark-adapted LRAT−/− mouse gavaged with 5 mg all-trans-retinyl acetate 2 days prior. FIG. 1D. Eyes from dark-adapted LRAT−/− mouse gavaged with 6.5 mg 9-cis-retinyl acetate 3 days prior. FIG. 1E. Liver tissue from dark adapted LRAT−/− mouse. FIG. 1F. Liver tissue from dark-adapted LRAT−/− mouse gavaged with 5 mg all-trans-retinyl palmitate 2 days prior. FIG. 1G. Liver tissue from dark-adapted LRAT−/− mouse gavaged with 5 mg all-trans-retinyl acetate 2 days prior. FIG. 1H. Liver tissue from dark-adapted LRAT−/− mouse gavaged with 6.5 mg 9-cis-retinyl acetate 3 days prior.
9-cis-retinyl ester restores visual pigment in an LCA mouse model. LRAT−/− mice were gavaged with all-trans-retinyl palmitate, all-trans-retinyl acetate or 9-cis-retinyl acetate as indicated in the legend to FIG. 1A-1H. Following treatment, retinoids were extracted from the eye and liver, and analyzed by HPLC. […] 9-cis-retinyl ester restores visual pigment in approximately 5 hr (FIG. 2), while excess of retinoid is removed and metabolized (as illustrated for 9-cis-retinol).

Lrat−/− mice [2] = test: 9-cis-RAL oxime levels in eyes of Lrat−/− mice after single or multiple oral doses (Example 3); type: in vivo, mouse
Protocol: Levels of 9-cis-RAL oximes (measured as syn- and anti-9-cis-retinyl aldehyde) in the eyes of Lrat−/− mice after a single dose or multiple doses of 9-cis-retinyl-acetate (9-cis-R-Ac). Doses of 9-cis-R-Ac were administered to Lrat−/− mice by oral gavage in vegetable oil (100% canola oil) in a volume of 500 ill (2.5 mg/ml). The mice weighed about 30-50 g. After 3 days, 9-cis-RAL oximes levels were determined by HPLC. Briefly, all experimental procedures related to extraction, derivatization, and separation of retinoids from dissected mouse eyes were carried out as described previously. See Van Hooser et al., J. Biol. Chem. 277:19173-182 (2002); Van Hooser et al., Proc. Natl. Acad. Sci. USA 97:8623-28 (2000); Maeda et al., J. Neurochem. 85:944-56 (2003). All reactions involving retinoids were carried out under dim red light.
Referring to FIG. 5a, the level of 9-cis-RAL in Lrat−/− in mouse eyes after a varying dose of 9-cis-R-Ac is shown. Peaks were identified by retention time and UV spectra and compared to standards. The spike around 19 min resulted from changes in the solvent composition. Retinoid analysis was performed on an HP1100 HPLC equipped with a diode array detector and HP Chemstation (A.07.01) software, allowing identification of retinoid isomers according to their specific retention time and absorption maxima. […]

Lrat−/− mice [3] = test: Bioavailability comparison of oral 9-cis-retinaldehyde and 9-cis-retinyl acetate, by chromophore levels in LRAT−/− mice (Example 5); type: in vivo, mouse; details: low (10 μmoles) and high (15 μmoles) doses, effect more pronounced at low dose, FIG. 7
Protocol: A comparison of the bioavailability of orally delivered 9-cis-retinaldehyde and 9-cis-retinyl acetate in an LRAT−/− model. 9-cis-retinaldehyde and 9-cis-retinyl acetate were administered at low (10 μmoles) and high (15 μmoles) doses to LRAT−/− mice. Chromophore levels (as 9-cis-retinal oximes) were determined as described previously. See Van Hooser et at, J. Biol. Chem. 277:19173-182 (2002); Van Hooser et al., Proc. Natl. Acad. Sci. USA 97:8623-28 (2000); Maeda et al., J. Neurochem. 85:944-56 (2003). All reactions involving retinoids were carried out under dim red light.

Lrat−/− mice [4] = test: Chromophore levels in eyes of Lrat−/− mice after all-trans-retinoid isoforms or 9-cis-retinyl succinate (Example 4); type: in vivo, mouse; details: 5 mg by oral gavage in canola oil (40 mg/ml), measured after 3 days; FIG. 6
Protocol: Levels of chromophore (opsin/retinal complexes) were measured in the eyes of mice after dosing with all-trans-retinoid isoforms or 9-cis-retinyl succinate. All-trans-retinyl-palmitate, all-trans-retinyl acetate, all-trans-retinal (vitamin A aldehyde), all-trans-retinol (vitamin A), all-trans-retinyl succinate and 9-cis-retinyl succinate were administered to Lrat−/− mice by oral gavage. Five milligrams of the retinoid isoforms or 9-cis-retinyl succinate were administered in 100% canola oil at a concentration of 40 mg/ml. After 3 days, chromophore levels (as all-trans-retinal oximes or 9-cis-retinal oximes) were determined as described previously. See Van Hooser et al., J. Biol. Chem. 277:19173-182 (2002); Van Hooser et al, Proc. Natl. Acad. Sci. USA 97:8623-28 (2000); Maeda et al., J. Neurochem. 85:944-56 (2003). All reactions involving retinoids were carried out under dim red light.

Structure (SMILES)	presence of syn-9-cis-retinal oxime in eyes (formation of the chromophore) ([1]; dark-adapted LRAT−/− mouse gavaged with 6.5 mg 3 days prior, FIG. 1D)	time in which visual pigment is restored ([1]; eye 9-cis-retinal oximes time course, FIG. 2)	maximal level of isorhodopsin (as 9-cis-retinal oximes) (Lrat−/− mice [2]; Lrat−/− mouse eyes after 10 gavages, FIG. 5b)	dose at which levels of 9-cis-RAL per eye leveled off (Lrat−/− mice [2]; single varying dose by oral gavage in canola oil, measured after 3 days, FIG. 5a) [µmol]	restoration of chromophore levels (as 9-cis-retinal oximes), compared with 9-cis-retinaldehyde (Lrat−/− mice [3])	restoration of chromophore levels (as all-trans-retinal oximes or 9-cis-retinal oximes) (Lrat−/− mice [4])
CC(=O)OC/C=C(C)/C=C/C=C(C)\C=C\C1=C(C)CCCC1(C)C [9-cis-retinyl acetate]	restored the presence of syn-9-cis-retinal oxime	approximately 5 hr	comparable to the level of rhodopsin in wildtype (WT) mice	4 to 6	more efficiently restores chromophore levels than 9-cis-retinaldehyde	
CC1=C(/C=C/C(C)=C\C=C\C(C)=C\COC(=O)CCC(=O)O)C(C)(C)CCC1 [9-cis-retinyl succinate]						restored chromophore levels
